Experimental findings from US20190359756A1, “OPTICAL MEMBER FORMING COMPOSITION” (Mitsubishi Gas Chemical Company, Inc., priority 2016, published 2019) are described below.

What all share (assay type): physicochemical
A short description of one data set: Film heat resistance. On the set-up: key: A: No defect in the film was visually observed.; C: Defects in the film were visually observed (including disappearance of the film). The note with it: film baked at 110° C. for 5 minutes, visual observation. On the procedure:
(§1) The compound was dissolved at 5% by mass in propylene glycol methyl ether to prepare an optical member forming material. Next, a silicon substrate was spin coated with the optical member forming material, and then baked at 110° C. for 60 seconds to form an optical member forming film with a film thickness of 1000 nm.
The optical member forming film obtained as described above was baked at 110° C. for 5 minutes, and evaluation of film heat resistance was carried out according to the following criteria.
A: No defect in the film was visually observed.
C: Defects in the film were visually observed (including disappearance of the film).

Data set [1] is described as follows: Transparency (absorption constant) of optical member forming film. Conditions: wavelength 633 nm, film thickness 1000 nm, baked at 110° C. for 60 seconds. On the procedure:
as §1
(§2) Subsequently, the refractive index and transparency tests at a wavelength of 633 nm were conducted using a vacuum ultraviolet variable angle spectroscopic ellipsometer (VUV-VASE) manufactured by J. A. Woollam Co., Inc. The refractive index and the transparency were evaluated according to the following criteria.
A: The absorption constant was less than 0.03.
B: The absorption constant was 0.03 or more and less than 0.05.
C: The absorption constant was 0.05 or more.

Data set [2] in a line: Solubility test in propylene glycol monomethyl ether acetate. Conditions: 23° C., ultrasonic waves 30 minutes, amount of complete dissolution. On the procedure: The solubility was evaluated by precisely weighing the compound into a test tube, adding propylene glycol monomethyl ether acetate at 23° C. so as to attain a predetermined concentration, applying ultrasonic waves for 30 minutes in an ultrasonic cleaner, then visually observing the subsequent state of the fluid, determining the concentration of the amount of complete dissolution, and conducting evaluation according to the following criteria.
A: 5.0% by mass Amount of dissolution
B: 3.0% by mass Amount of dissolution <5.0% by mass
C: Amount of dissolution <3.0% by mass

Data set [3] is described as follows: Refractive index of optical member forming film (spectroscopic ellipsometer). The note with it: wavelength 633 nm, film thickness 1000 nm, baked at 110° C. for 60 seconds. Here is the method:
as §1, §2
A: The refractive index was 1.65 or more.
C: The refractive index was less than 1.65.

On to `Oc1ccc2c3c(ccc2c1)Oc1ccc2cc(O)ccc2c1C3c1ccc(-c2ccccc2)cc1` [XiN-1], for which the Film heat resistance result in the data set “Film heat resistance” was “A”. The Absorption constant result in data set [1] is listed as “A (The absorption constant was less than 0.03.)”. The Solubility entry in data set [2] is “A (5.0% by mass Amount of dissolution)”. In addition, in data set [3], the Refractive index entry was “A (The refractive index was 1.65 or more.)”.

As for `CCCc1ccc(C2c3c(ccc4cc(O)ccc34)Oc3ccc4cc(O)ccc4c32)cc1` [XBisN-3], the Film heat resistance entry in “Film heat resistance” is given as “A”. Also, in data set [1], the Absorption constant entry is “A (The absorption constant was less than 0.03.)”. In addition, in data set [2], the Solubility entry is reported as “A (5.0% by mass Amount of dissolution)”. Further, the Refractive index result in data set [3] was “A (The refractive index was 1.65 or more.)”.

Turning to `CC(C)Cc1ccc(C2c3c(ccc4cc(O)ccc34)Oc3ccc4cc(O)ccc4c32)cc1` [XBisN 2], in “Film heat resistance”, the Film heat resistance result was “A”. In addition, the Absorption constant result in data set [1] is listed as “A (The absorption constant was less than 0.03.)”. The Solubility entry in data set [2] was “A (5.0% by mass Amount of dissolution)”. Moreover, the Refractive index result in data set [3] is listed as “A (The refractive index was 1.65 or more.)”.

On to `Oc1ccc(-c2ccc(O)c(C(c3ccc(-c4ccccc4)cc3)c3cc(-c4ccc(O)cc4)ccc3O)c2)cc1` [BiP-2], for which the Film heat resistance result in the data set “Film heat resistance” was “A”. For the same compound, the Absorption constant result in data set [1] is “A (The absorption constant was less than 0.03.)”. Moreover, the Solubility entry in data set [2] is reported as “A (5.0% by mass Amount of dissolution)”. Besides, in data set [3], the Refractive index entry is on record as “A (The refractive index was 1.65 or more.)”.

As for `Oc1ccc2ccc3c(c2c1)C(c1ccc(C2CCCCC2)cc1)c1c(ccc2ccc(O)cc12)O3` [XBisN-9], the Film heat resistance entry in the data set “Film heat resistance” is “A”. The Absorption constant entry in data set [1] is “A (The absorption constant was less than 0.03.)”. Moreover, the Solubility result in data set [2] was “A (5.0% by mass Amount of dissolution)”. For the same compound, the Refractive index entry in data set [3] was “A (The refractive index was 1.65 or more.)”.

For the compound `Oc1ccc(C(c2ccc(C3CCCCC3)cc2)c2ccc(O)cc2O)c(O)c1` [Example P-7], the Film heat resistance entry in the data set “Film heat resistance” was “A”. For the same compound, the Absorption constant result in data set [1] is “A (The absorption constant was less than 0.03.)”. Also, the Solubility result in data set [2] was “A (5.0% by mass Amount of dissolution)”. The Refractive index entry in data set [3] is reported as “A (The refractive index was 1.65 or more.)”.

Regarding `CC(C)Cc1ccc(C2c3c(ccc4ccc(O)cc34)Oc3ccc4ccc(O)cc4c32)cc1` [XBisN-6], the Film heat resistance result in “Film heat resistance” was “A”. For the same compound, the Absorption constant result in data set [1] is recorded as “A (The absorption constant was less than 0.03.)”. The Solubility entry in data set [2] is given as “A (5.0% by mass Amount of dissolution)”. Besides, the Refractive index entry in data set [3] is given as “A (The refractive index was 1.65 or more.)”.

`Oc1ccc(C(c2ccc(-c3ccccc3)cc2)c2ccc(O)c(-c3ccccc3)c2)cc1-c1ccccc1` [BiP-1]: in “Film heat resistance”, the Film heat resistance result was “A”. The Absorption constant result in data set [1] was “A (The absorption constant was less than 0.03.)”. Moreover, in data set [2], the Solubility entry was “A (5.0% by mass Amount of dissolution)”. Further, in data set [3], the Refractive index result was “A (The refractive index was 1.65 or more.)”.

Take `Oc1ccc2ccc3c(c2c1)C(c1ccc(-c2ccc(C4c5c(ccc6ccc(O)cc56)Oc5ccc6ccc(O)cc6c54)cc2)cc1)c1c(ccc2ccc(O)cc12)O3` [XBiN 3]: the Film heat resistance entry in “Film heat resistance” is “A”. Also, the Absorption constant entry in data set [1] is “A (The absorption constant was less than 0.03.)”. For the same compound, in data set [2], the Solubility entry is reported as “A (5.0% by mass Amount of dissolution)”. In addition, in data set [3], the Refractive index result is on record as “A (The refractive index was 1.65 or more.)”.

As for `Oc1ccc(C(c2ccc(-c3ccccc3)cc2)c2ccc(O)cc2O)c(O)c1` [Example P-5], the Film heat resistance entry in “Film heat resistance” is on record as “A”. In addition, the Absorption constant entry in data set [1] was “A (The absorption constant was less than 0.03.)”. The Solubility entry in data set [2] is “A (5.0% by mass Amount of dissolution)”. Besides, the Refractive index result in data set [3] is listed as “A (The refractive index was 1.65 or more.)”.

As for `Oc1ccc2c3c(ccc2c1)Oc1ccc2cc(O)ccc2c1C3c1ccc(C2CCCCC2)cc1` [XBisN-5], the Film heat resistance entry in “Film heat resistance” is listed as “A”. The Absorption constant result in data set [1] is “A (The absorption constant was less than 0.03.)”. Besides, the Solubility result in data set [2] was “A (5.0% by mass Amount of dissolution)”. Moreover, the Refractive index entry in data set [3] is recorded as “A (The refractive index was 1.65 or more.)”.

`CCCc1ccc(C2c3c(ccc4ccc(O)cc34)Oc3ccc4ccc(O)cc4c32)cc1` [XBisN-7]: in the data set “Film heat resistance”, the Film heat resistance result is “A”. Besides, in data set [1], the Absorption constant entry is listed as “A (The absorption constant was less than 0.03.)”. Besides, the Solubility result in data set [2] is given as “A (5.0% by mass Amount of dissolution)”. The Refractive index result in data set [3] is on record as “A (The refractive index was 1.65 or more.)”.

`Oc1ccc(C2c3c(ccc4ccc(O)cc34)Oc3ccc4ccc(O)cc4c32)cc1` [XBisN-8]: in “Film heat resistance”, the Film heat resistance result is on record as “A”. Also, the Absorption constant entry in data set [1] is “A (The absorption constant was less than 0.03.)”. Further, the Solubility result in data set [2] is “A (5.0% by mass Amount of dissolution)”. Also, in data set [3], the Refractive index entry is given as “A (The refractive index was 1.65 or more.)”.

Turning to `Oc1ccc(C(c2ccccc2)c2ccc(O)cc2O)c(O)c1` [Example P-6], the Film heat resistance entry in “Film heat resistance” was “A”. The Absorption constant entry in data set [1] is given as “A (The absorption constant was less than 0.03.)”. Further, in data set [2], the Solubility entry was “A (5.0% by mass Amount of dissolution)”. Also, the Refractive index result in data set [3] is reported as “A (The refractive index was 1.65 or more.)”.

In the case of `Oc1ccc(C2c3c(ccc4cc(O)ccc34)Oc3ccc4cc(O)ccc4c32)cc1` [XBisN-4], the Film heat resistance result in the data set “Film heat resistance” is reported as “A”. Moreover, in data set [1], the Absorption constant result is “A (The absorption constant was less than 0.03.)”. For the same compound, in data set [2], the Solubility entry is “A (5.0% by mass Amount of dissolution)”. Moreover, the Refractive index result in data set [3] is given as “A (The refractive index was 1.65 or more.)”.

Consider `Oc1ccc2c3c(ccc2c1)Oc1ccc2cc(O)ccc2c1C3c1ccc(-c2ccc(C3c4c(ccc5cc(O)ccc45)Oc4ccc5cc(O)ccc5c43)cc2)cc1` [XiN-3], for which, in “Film heat resistance”, the Film heat resistance entry is reported as “A”. The Absorption constant result in data set [1] is given as “A (The absorption constant was less than 0.03.)”. Further, in data set [2], the Solubility result is reported as “A (5.0% by mass Amount of dissolution)”. Moreover, the Refractive index entry in data set [3] is “A (The refractive index was 1.65 or more.)”.
